“And” between values parts separate entries of the source, which are not always exact repeats. Equal entries are not always repeated.
Legend:
Assay type in all cases: in vivo
[1] = system: Two-spotted spider mite (Tetranychus uriticae), P-resistant origin; assay: Two-spotted spider mite leaf dip test (TSMR A42); conditions: 300 ppm, lima bean, mixed life stages, five days
Protocol: (§1) Test compounds were prepared and formulated into aqueous formulations using acetone. The formulations were tested using the following target species: • SAW-L52-PRODER (southern armyworm), 2ND-3RD Instar Larvae, Leaf Dip, 4 days • CA-H43-APHIGO (cotton aphid), Mixed Life Stages, Leaf Dip • BA-H40-APHIFA (black bean aphid), Mixed Life Stages, Plant Drench • GPA-H52-MYZUPE (green peach aphid), Mixed Life Stages, Leaf Dip • SLWF-H45-BEMIAR (silver leaf whitefly), Adult, Leaf Dip • TSMR-A42-TETRUR (two-spotted spider mite, P-resistant origin), Mixed Life Soges, Leaf Dip
Test Procedures for Two-spotted spider mite (Tetranychus uriticae) TSM—leaf-dip:
Selected lima bean plants (one plant per pot), grown to the first leaf pair with a span of 7-12 cm. Placed sections of a heavily infested leaf (laboratory reared mites) an the test plants. Allowed the mites to transfer from the leaf sections to the test plants (at least two houss) to provide at least 100 mites per leaf. Removed the leaf sections from the test plants prior to dipping.
Prepared test solutions as needed in 50:50 acetone:water and 100 ppm Kinetic® surfactant. Dipped the infested leaves of the intact plant into the test solution to provide complete coverage of the leaf surfaces. Placed in a well-vented area to dry. […]

[2] = system: Green peach aphid (Myzus persicae); assay: Green peach aphid leaf dip test (GPA H52); conditions: pepper, mixed life stages, five days
Protocol: as §1
Test Procedures for GPA—Green peach aphid (Myzus persicae)—Leaf Dip:
Selected pepper plants (one plant per pot) in the second leaf-pair stage, with the 1st leaf-pair measuring 6-10 cm from tip to tip. Removed the cotyledons. Placed infested pepper leaves or leaf sections on top of the test plants, allowing for approximately 60 laboratory-reared aphids per plant. Allowed the aphids to transfer from the leaf sections to the test plants (overnight) to reach a density of at least 40 aphids per plant, then removed the leaf sections.
Prepared test solutions as needed in 50:50 acetone:water and 100 ppm Kinetic® surfactant (STP#1A). Dipped the leaves of the infested plant into the test solution to provide complete coverage of the leaf surfaces. Placed in a well-vented area to dry. Test plants were maintained under fluorescent light (24 hour photoperiod) at 25±2° C. and 20-40% relative humidity for five days, at which time aphid survival was determined (see Table 1a).

[3] = system: Bean aphid (Aphis fabae); assay: Bean aphid test on nasturtium seedlings (BA H40); design: key to BA H40 observation (feeding): R = Reduced feeding, regardless of cause (e.g., repellent effects); conditions: 3 days; for BA H40 activity rating: mixed life stages
Protocol: as §1
Test Procedures for Bean aphid (Aphis fabae) (BA—Foliar):
Transferred approximately 5-day-old nasturtium seedlings (at the state of unfolded cotyledons), grown in Metro mix in propagation trays in the greenhouse, to Rootcubes, which were held in propagation trays Pressed the seed (still attached to the seedling) in the central depression of each cube. Held transferred seedlings for approximately 3 days in the greenhouse for expansion of the cotyledons.
In the insecticide screening laboratory, infested the seedlings. Positioned a paint roller screen above the 72 plants in each tray so that the screen was in contact with the foliage of the test plants. Spread approximately 50 infested nasturtium stems and leaves (from approximately 2-3 peat pots of insectary-reared aphids) an each screen. Kept the trag with the seedlings sitting in about ½ in. water overnight in the laboratory (leaving lights in lab on). Migration of aphids to the test plants occurred by morning. Removed the screen with drying leaves from the trays of test plants and discarded the leaves.
Prepared test solutions as needed in 50:50 acetone:water and 100 ppm Kinetic® surfactant. Selected plants to dip that had approximately 2-30 aphids per plant. Dipped each plant into the test solution to provide complete coverage of the foliage, stem, protruding seed surface and surrounding cube surface. Kept treated plants in the fume hood to dry. For routine screening, used one plant/treatment.
Placed treated plants in bioassay trays, 1 plant/well. Added water to fill each well. This allowed the plants to be watered from the roots, not interfering with the foliar treatment, and reduced potential migration of aphids between treatments. Kept treated plants at room temperature an the insecticide screening lab bench with continuous fluorescent light for 3 days.

[4] = system: Cotton aphid (Aphis gossypii); assay: Cotton aphid leaf dip test (CA H43); conditions: mixed life stages
Protocol: as §1
Test Procedures for Cotton aphid (Aphis gossypii) (CA—leaf dip):
Selected cotton plants to the cotyledon stage (one plant per pot). Placed one heavily infested cotyledon pair, hosting approximately 100 laboratory-reared aphids, an top of each test plant. Allowed the aphids to transfer to the test plants (overnight). Removed the drying cotyledons from the test plants prior to dipping.
Prepared test solutions as needed in 50:50 acetone: water and 100 ppm Kinetic® surfactant. Dipped the infested leaves of the intact plant into the test solution to provide complete coverage of the leaf surfaces. Placed in a well-vented area to dry.

Structure (SMILES)	TSMR A42 activity rating [1]	GPA H52 activity rating ([2]; 10 ppm)	GPA H52 activity rating ([2]; 100 ppm)	GPA H52 activity rating ([2]; 300 ppm)	BA H40 activity rating ([3]; 10 ppm)	BA H40 observation (feeding) ([3]; 100 ppm)	BA H40 activity rating ([3]; 100 ppm)	BA H40 observation (feeding) ([3]; 300 ppm)	BA H40 activity rating ([3]; 300 ppm)	CA H43 activity rating ([4]; 10 ppm)	CA H43 activity rating ([4]; 100 ppm)	CA H43 activity rating ([4]; 300 ppm)
N#CCNS(=O)(=O)c1cnccc1C(F)(F)F [Compound 2, 4-Trifluoromethyl-pyridine-3-sulfonic acid cyanomethyl-amide]	0 (0 = 0-25% reduction of live population vs. check)	0 (0 = 0-25% reduction of live population vs. check)	3 (3 = 25-49% reduction of live population vs. check)	8 (8 = 86-99% reduction of live population vs. check) and 5 (5 = 50-74% reduction of live population vs. check)	0^ (0 = 0-25% reduction of live population vs. check)	R	0 (0 = 0-25% reduction of live population vs. check)	R	7 (7 = 75-85% reduction of live population vs. check)	0 (0 = 0-25% reduction of live population vs. check)	8 (8 = 86-99% reduction of live population vs. check)	9 (9 = 100% reduction of live population vs. check)
C#CCNS(=O)(=O)c1cnccc1C(F)(F)F [Compound 1, 4-Trifluoromethyl-pyridine-3-sulfonic acid prop-2-ynylamide]	0 (0 = 0-25% reduction of live population vs. check)	0 (0 = 0-25% reduction of live population vs. check)	7 (7 = 75-85% reduction of live population vs. check)	8 (8 = 86-99% reduction of live population vs. check)	0^ (0 = 0-25% reduction of live population vs. check)	R	5 (5 = 50-74% reduction of live population vs. check)	R	8 (8 = 86-99% reduction of live population vs. check)	0 (0 = 0-25% reduction of live population vs. check)	8 (8 = 86-99% reduction of live population vs. check)	8 (8 = 86-99% reduction of live population vs. check)
